Test results reported in article PMC9698716, “From Serendipity to Rational Identification of the 5,6,7,8-Tetrahydrobenzo[4,5]thieno[2,3-d]pyrimidin-4(3H)-one Core as a New Chemotype of AKT1 Inhibitors for Acute Myeloid Leukemia” (Pharmaceutics, 2022).

Biological target: T1, AKT1 (Homo sapiens, UniProt P31749)
T1 construct: purchased Kinase Logistics, Meyn, Germany #Aps 01-101
Assay: AKT1 enzymatic inhibition assay
Format: biochemical
Experimental: The studied compounds, including the standard inhibitor Staurosporine (Thermo-Fisher , Madrid, Spain, Invitrogen BP2541), were incubated with 3 nM AKT1 (#Aps 01-101; Kinase Logistics, Meyn, Germany) and 1.5 μM Profiler Pro peptide 6 (#760350; Perkin Elmer, Tres Cantos, Madrid, Spain) in the presence of different concentrations of Adenosine 5′triphosphate disodium salt, ATP (#A2383; Sigma Aldrich, Madrid, Spain) in a 384-well Microplate (#781076; Greiner, San Sebastián de los Reyes, Madrid, Spain). The reaction rate was calculated from kinetic measurements carried out measured in a Caliper EzReader LabChip 3000 (Caliper, Hopkinton, MA, USA) reader with samples taken each 10 min for a total time of 60 min. The percentage of substrate conversion rate was plotted versus the ATP concentration. The data was analyzed by non-linear fitting with GraphPad Prism by employing the Michaelis–Menten equation. The buffer assay used in the inhibition hAKT1 assay is: Hepes 100 mM, DMSO 4%, Brij 0.003%, Tween 20 0.004%, MgCl2 10 mM, with a pH = 7.5.
The Ki values were calculated by employing the GraphPad Prism equations.

T1 sequence (P31749 whole entry): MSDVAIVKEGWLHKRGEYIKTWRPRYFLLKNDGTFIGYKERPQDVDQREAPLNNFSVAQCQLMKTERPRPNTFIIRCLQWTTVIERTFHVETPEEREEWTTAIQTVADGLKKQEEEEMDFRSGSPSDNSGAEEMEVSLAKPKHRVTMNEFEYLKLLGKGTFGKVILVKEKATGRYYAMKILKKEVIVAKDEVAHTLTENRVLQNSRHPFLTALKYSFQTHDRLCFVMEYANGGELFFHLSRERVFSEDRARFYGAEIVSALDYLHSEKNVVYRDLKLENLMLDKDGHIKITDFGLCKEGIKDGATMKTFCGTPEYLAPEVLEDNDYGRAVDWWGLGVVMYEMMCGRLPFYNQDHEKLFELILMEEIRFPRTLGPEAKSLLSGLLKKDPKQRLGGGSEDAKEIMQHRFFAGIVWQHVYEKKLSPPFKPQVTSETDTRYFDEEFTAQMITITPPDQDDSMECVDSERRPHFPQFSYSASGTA

IC50: 1990 ± 110 nM | inhibition at 10 µM (10 μM compound, read-out: %inh (percentage of inhibition of AKT1 activity)): 87% | Ki (read-out: Ki (AKT1 inhibition constant)): 410 nM
Structure (SMILES): O=c1[nH]c(-c2ccc(O)c(O)c2)nc2sc3c(c12)CCCC3 [T126]
